“And” between values parts separate entries of the source, which are not always exact repeats. Equal entries are not always repeated. “Also recorded” adds a separate entry of the source.
Key:
[1] = test system: methionine-enkephalin-induced analgesia; experiment: Potentiation of methionine-enkephalin-induced analgesia (hot plate test), product given i.v.; assay type: in vivo, Male Swiss mice; details: for Reaction time areas, Product: product alone
Experimental: (§1) Male Swiss mice (CD Charles River) weighing 22-24 g received intracerebroventricular (i.c.v.) injection of methionineenkephalin as described by Haley and Mc Cormick [Br. J. Pharmacol., 12, 12-15, (1957)].
(§2) Methionine-enkephalin was dissolved in distilled water and microinjected in a volume of 10 μl/mouse and in a dose analgesic in less than 30% of animals. The dose (10.25 or 50 μg/mouse) was chosen at the beginning of each experience depending on each batch's analgesic activity.
(§3) The antinociceptive effect was tested by the hot plate test as described by Eddy and Leimbach [(J. Pharmacol. Exptl. Therap., 107, 385-393, (1953)]. The time in seconds from contact with the plate (51.5° C.) to paw licking or Jumping accurrence was recorded as the response latency.
(§4) Animals were removed as soon as they reacted or after 30 seconds if they at 3, 6, 9, 12 and 15 minutes after the i.c.v. treatment and the latency times measured were used to calculate the reaction time areas. At first the compounds of formula I and Bestatin were administered simultaneously to methionine-enkephalin (dissolved in the same solution) by intracerebroventricular treatment to evaluate their activity without any interference due to absorbtion or diffusion through the blood-brain barrier.
Then the compounds of formula I and Bestatin were tested after intravenous (i.v.) administration to study their diffusion across blood-brain barrier.
The administration i.v. of the compounds of formula I and of Bestatin was simultaneous to methionine-enkephalin administration i.c.v.

[2] = test system: methionine-enkephalin-induced analgesia; experiment: Potentiation of methionine-enkephalin-induced analgesia (hot plate test), product given i.c.v.; assay type: in vivo, Male Swiss mice; details: for Reaction time areas, Product Met-enk: product 0.16 μmoles i.c.v. together with Met-enk i.c.v., hot plate; for Reaction time areas, Product: product alone, 0.16 μmoles i.c.v., hot plate 51.5° C., 3-15 min
Experimental: as §1, §2, §3, §4

[3] = product 0.05 mmoles/kg i.v. simultaneous to Met-enk i.c.v.
[4] = product 0.08 mmoles/kg i.v. simultaneous to Met-enk i.c.v.

Compound	Activity of enhancing analgesia induced by opioids when administered by intravenous route ([1]; intravenous route, in words)	Reaction time areas, Product Met-enk [1, 3]	Reaction time areas, Product Met-enk [1, 4]	Reaction time areas, Product ([1]; 0.05 mmoles/kg i.v.)	Reaction time areas, Product ([1]; 0.08 mmoles/kg i.v.)	Reaction time areas, Product Met-enk [2]	Reaction time areas, Product [2]	Reaction time areas, Met-enk ([1]; Met-enk alone i.c.v., control group of each Table 2 experiment)	Reaction time areas, Met-enk ([2]; Met-enk alone i.c.v., control group of each Table 1 experiment)
CC(C)C[C@H](NC(=O)[C@@H](O)[C@H](N)Cc1ccccc1)C(=O)O [Bestatin, [(2S,3R)-3-amino-2-hydroxy-4-phenyl-butanoyl]-L-leucine]	practically inactive; also recorded: not active	202 ± 6.9	212 ± 10.0	173 ± 3.7	182 ± 8.3	268 ± 11.3	222 ± 13.3		
CS(=O)(=O)c1ccc(C[C@@H](N)[C@H](O)C(=O)NC2(C(=O)O)CCCC2)cc1 [Compound 2, 1-[(2S,3R)-3-amino-2-hydroxy-4-(4-methylsulfonyl-phenyl)-butanoyl]-amino-1-cyclopentanecarboxylic acid]		243 ± 15.9	233 ± 10.1	190 ± 7.8	191 ± 8.5				
CS(=O)(=O)c1ccc(C[C@@H](N)[C@H](O)C(=O)NC2(C(=O)O)CCC2)cc1 [Compound 4, 1-[(2S,3R)-3-amino-2-hydroxy-4-(4-methylsulfonyl-phenyl)-butanoyl]-amino-1-cyclobutanecarboxylic acid]						290 ± 17.1	179 ± 9.9		
Methionine-enkephalin [Met-enk]								199 ± 14.0 and 197 ± 16.7 and 208 ± 8.3 and 200 ± 6.1 and 197 ± 9.7	207 ± 15.6 and 173 ± 11.2 and 188 ± 4.7
